Columns and labels:
Deodorization test 1 [1] = details: Ammonia; for Reduction: initial 100 ppm, after 30 minutes; for Reduction / Concentration after 30 minutes: 0.2 ml of 10% by weight aqueous solution; for Concentration after 30 minutes: initial concentration 100 ppm
Deodorization test 1 [2] = details: Acetaldehyde; for Reduction: initial 10 ppm, after 30 minutes; for Reduction / Concentration after 30 minutes: 0.2 ml of 10% by weight aqueous solution; for Concentration after 30 minutes: initial concentration 10 ppm
Deodorization test 1 [3] = details: Styrene, 0.2 ml of 10% by weight aqueous solution; for Reduction: initial 100 ppm, after 30 minutes; for Concentration after 30 minutes: initial concentration 100 ppm
Deodorization test 1 [4] = details: Toluene, 0.2 ml of 10% by weight aqueous solution; for Reduction: initial 100 ppm, after 30 minutes; for Concentration after 30 minutes: initial concentration 100 ppm
Deodorization test 1 [5] = details: Formaldehyde, 0.2 ml of 10% by weight aqueous solution; for Reduction: initial 10 ppm, after 30 minutes; for Concentration after 30 minutes: initial concentration 10 ppm
Deodorization test 1 [6] = details: Methyl mercaptan; for Reduction: initial 10 ppm, after 30 minutes; for Reduction / Concentration after 30 minutes: 0.2 ml of 10% by weight aqueous solution; for Concentration after 30 minutes: initial concentration 10 ppm
Deodorization test 1 [7] = details: Isovaleric acid; for Reduction: initial 10 ppm, after 30 minutes; for Reduction / Concentration after 30 minutes: 0.2 ml of 10% by weight aqueous solution; for Concentration after 30 minutes: initial concentration 10 ppm
Deodorization test 1 [8] = details: Acetic acid; for Reduction: initial 20 ppm, after 30 minutes; for Reduction / Concentration after 30 minutes: 0.2 ml of 10% by weight aqueous solution; for Concentration after 30 minutes: initial concentration 20 ppm
Deodorization test 1 [9] = details: Trimethylamine; for Reduction: initial 20 ppm, after 30 minutes; for Reduction / Concentration after 30 minutes: 0.2 ml of 10% by weight aqueous solution; for Concentration after 30 minutes: initial concentration 20 ppm

SMILES	Reduction (Deodorization test 1 [1])	Concentration after 30 minutes (Deodorization test 1 [1])	Reduction (Deodorization test 1 [2])	Concentration after 30 minutes (Deodorization test 1 [2])	Reduction (Deodorization test 1 [3])	Concentration after 30 minutes (Deodorization test 1 [3])	Reduction (Deodorization test 1 [4])	Concentration after 30 minutes (Deodorization test 1 [4])	Reduction (Deodorization test 1 [5])	Concentration after 30 minutes (Deodorization test 1 [5])	Reduction (Deodorization test 1 [6])	Concentration after 30 minutes (Deodorization test 1 [6])	Reduction (Deodorization test 1 [7])	Concentration after 30 minutes (Deodorization test 1 [7])	Reduction (Deodorization test 1 [8])	Concentration after 30 minutes (Deodorization test 1 [8])	Reduction (Deodorization test 1 [9])	Concentration after 30 minutes (Deodorization test 1 [9])	also measured
N=C(N)NCCC[C@H](N)C(=O)O [Arginine]	10%	90 ppm	10%	9 ppm	0%	100 ppm	0%	100 ppm	0%	10 ppm	0%	10 ppm	0%	10 ppm	15%	17 ppm	5%	19 ppm	
N[C@@H](CS)C(=O)O [Cysteine]	100%	0 ppm	0%	10 ppm	10%	90 ppm	10%	90 ppm	20%	8 ppm	0%	10 ppm	20%	8 ppm	20%	16 ppm	100%	0 ppm	deodorizing action (in words) (Deodorization test 1 [1]): excellent deodorizing action; deodorizing action (in words) (Deodorization test 1 [9]): excellent deodorizing action
NCC(=O)O [Glycine]	100%	0 ppm	80%	2 ppm	60%	40 ppm	60%	40 ppm	70%	3 ppm	100%	0 ppm	90%	1 ppm	90%	2 ppm	100%	0 ppm	deodorizing action (in words) (Deodorization test 1 [1]): excellent deodorizing action; deodorizing action (in words) (Deodorization test 1 [2]): good results; deodorizing action (in words) (Deodorization test 1 [6]): excellent deodorizing action; deodorizing action (in words) (Deodorization test 1 [7]): good results; deodorizing action (in words) (Deodorization test 1 [8]): good results; deodorizing action (in words) (Deodorization test 1 [9]): excellent deodorizing action
NCCCC[C@H](N)C(=O)O [Lysine]	10%	90 ppm	10%	9 ppm	0%	100 ppm	0%	100 ppm	0%	10 ppm	0%	10 ppm	0%	10 ppm	0%	20 ppm	10%	18 ppm	
CSCC[C@H](N)C(=O)O [Methionine]	30%	70 ppm	10%	9 ppm	10%	90 ppm	10%	90 ppm	10%	9 ppm	0%	10 ppm	0%	10 ppm	10%	18 ppm	10%	18 ppm	
O=C(O)[C@@H]1CCCN1 [Proline]	10%	90 ppm	20%	8 ppm	0%	100 ppm	0%	100 ppm	0%	10 ppm	0%	10 ppm	0%	10 ppm	0%	20 ppm	5%	19 ppm	
N[C@@H](Cc1c[nH]c2ccccc12)C(=O)O [Tryptophan]	50%	50 ppm	10%	9 ppm	0%	100 ppm	0%	100 ppm	10%	9 ppm	0%	10 ppm	0%	10 ppm	10%	18 ppm	50%	10 ppm	
CC(C)[C@H](N)C(=O)O [Valine]	10%	90 ppm	0%	10 ppm	0%	100 ppm	0%	100 ppm	0%	10 ppm	0%	10 ppm	0%	10 ppm	0%	20 ppm	5%	19 ppm	

— US8435955B2, “Antibacterial deodorant” (priority 2008, dated 2013)
